Results from ChEMBL document CHEMBL4609983, “Pan-specific and partially selective dye-labeled peptidic inhibitors of the polycomb paralog proteins” (Bioorg Med Chem, 2020).
Non-standard residues stand in square brackets, D forms with d. Residues, ends and D or L forms follow the SMILES beside them. *: point of attachment. X1 = O=C(O)c1cc(NC(=S)*)ccc1-c1c2ccc(=O)cc-2oc2cc(O)ccc12; Lys(Me3) = C[N+](C)(C)CCCC[C@H](N)C(=O)O; Benzoyl(4-Br) = O=C(c1ccc(Br)cc1)*; Gly(cPent) = N[C@H](C(=O)O)C1CCCC1; Abu = CC[C@H](N)C(=O)O; βAla = NCCC(=O)O

Legend:
[1] = biological target: T1, Chromobox protein homolog 6 (Homo sapiens, UniProt O95503); assay: Inhibition of CBX6 (unknown origin) assessed as […] by competitive FP assay
T1 sequence (O95503 whole entry): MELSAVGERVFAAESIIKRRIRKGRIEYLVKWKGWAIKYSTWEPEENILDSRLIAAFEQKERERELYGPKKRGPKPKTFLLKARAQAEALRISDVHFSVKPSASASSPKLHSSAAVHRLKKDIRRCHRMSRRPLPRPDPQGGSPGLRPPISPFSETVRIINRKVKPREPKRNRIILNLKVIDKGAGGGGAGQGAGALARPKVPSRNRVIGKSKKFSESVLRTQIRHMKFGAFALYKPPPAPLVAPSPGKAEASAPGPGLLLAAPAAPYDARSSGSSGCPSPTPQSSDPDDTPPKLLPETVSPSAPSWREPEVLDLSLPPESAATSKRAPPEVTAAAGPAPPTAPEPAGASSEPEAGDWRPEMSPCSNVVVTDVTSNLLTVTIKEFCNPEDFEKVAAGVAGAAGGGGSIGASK

[2] = test system: TOV21G; assay: Decrease in cell viability in human TOV21G cells by MTT assay; assay type: cell-based
[3] = biological target: T2, Chromobox protein homolog 8 (Homo sapiens, UniProt Q9HC52); assay: Inhibition of CBX8 (unknown origin) assessed as […] by competitive FP assay
T2 sequence (Q9HC52 whole entry): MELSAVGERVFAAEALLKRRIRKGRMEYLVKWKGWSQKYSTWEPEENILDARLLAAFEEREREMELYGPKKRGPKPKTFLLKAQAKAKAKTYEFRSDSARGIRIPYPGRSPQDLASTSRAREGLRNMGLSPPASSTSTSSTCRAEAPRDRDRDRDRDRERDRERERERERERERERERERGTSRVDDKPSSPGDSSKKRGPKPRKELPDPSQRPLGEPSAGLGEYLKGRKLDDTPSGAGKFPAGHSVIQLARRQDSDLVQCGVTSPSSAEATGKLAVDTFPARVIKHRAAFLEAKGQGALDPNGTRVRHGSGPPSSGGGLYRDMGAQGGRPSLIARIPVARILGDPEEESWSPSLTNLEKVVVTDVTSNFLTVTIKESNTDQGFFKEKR

[4] = biological target: T3, Chromobox protein homolog 7 (Homo sapiens, UniProt O95931); assay: Inhibition of CBX7 (unknown origin) assessed as […] by competitive FP assay
T3 sequence (O95931 whole entry): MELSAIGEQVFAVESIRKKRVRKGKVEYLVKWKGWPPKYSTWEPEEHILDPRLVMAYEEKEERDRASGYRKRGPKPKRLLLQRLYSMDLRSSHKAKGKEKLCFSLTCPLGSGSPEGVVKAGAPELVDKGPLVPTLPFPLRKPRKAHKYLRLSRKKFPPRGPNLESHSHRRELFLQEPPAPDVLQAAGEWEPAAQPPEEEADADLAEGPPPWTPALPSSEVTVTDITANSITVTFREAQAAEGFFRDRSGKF

[5] = biological target: T1, Chromobox protein homolog 6; assay: Binding affinity to CBX6 (unknown origin) assessed as dissociation constant by fluorescence polarization analysis
[6] = biological target: T2, Chromobox protein homolog 8; assay: Binding affinity to CBX8 (unknown origin) assessed as dissociation constant by fluorescence polarization analysis
[7] = biological target: Chromobox protein homolog 1 (Homo sapiens, UniProt P83916); assay: Binding affinity to CBX1 (unknown origin) assessed as dissociation constant by fluorescence polarization analysis
Chromobox protein homolog 1, sequence (P83916 whole entry): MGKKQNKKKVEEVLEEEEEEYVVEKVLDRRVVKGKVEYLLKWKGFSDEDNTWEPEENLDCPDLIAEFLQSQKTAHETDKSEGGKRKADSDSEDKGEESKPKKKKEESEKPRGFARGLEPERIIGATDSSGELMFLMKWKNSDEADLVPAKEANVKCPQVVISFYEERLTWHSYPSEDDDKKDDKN

[8] = biological target: T3, Chromobox protein homolog 7; assay: Binding affinity to CBX7 (unknown origin) assessed as dissociation constant by fluorescence polarization analysis
[9] = biological target: T4, Chromobox protein homolog 2 (Homo sapiens, UniProt Q14781); assay: Binding affinity to CBX2 (unknown origin) assessed as dissociation constant by fluorescence polarization analysis
T4 sequence (Q14781 whole entry): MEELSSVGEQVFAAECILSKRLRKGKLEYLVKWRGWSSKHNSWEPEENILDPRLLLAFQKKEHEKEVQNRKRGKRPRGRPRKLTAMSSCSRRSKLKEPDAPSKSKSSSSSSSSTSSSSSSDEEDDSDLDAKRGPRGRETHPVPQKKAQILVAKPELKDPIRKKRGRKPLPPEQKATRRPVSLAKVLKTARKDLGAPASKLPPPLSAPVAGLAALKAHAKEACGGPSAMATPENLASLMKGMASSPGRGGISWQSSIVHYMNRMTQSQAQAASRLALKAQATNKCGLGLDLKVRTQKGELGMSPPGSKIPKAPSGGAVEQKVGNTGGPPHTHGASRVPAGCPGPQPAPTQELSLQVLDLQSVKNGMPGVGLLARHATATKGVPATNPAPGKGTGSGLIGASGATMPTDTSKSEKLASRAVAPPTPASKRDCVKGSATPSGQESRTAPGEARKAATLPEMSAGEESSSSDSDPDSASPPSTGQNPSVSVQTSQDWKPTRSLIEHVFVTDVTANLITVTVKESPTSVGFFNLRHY

[10] = biological target: T5, E3 SUMO-protein ligase CBX4 (Homo sapiens, UniProt O00257); assay: Binding affinity to CBX4 (unknown origin) assessed as dissociation constant by fluorescence polarization analysis
T5 sequence (O00257 whole entry): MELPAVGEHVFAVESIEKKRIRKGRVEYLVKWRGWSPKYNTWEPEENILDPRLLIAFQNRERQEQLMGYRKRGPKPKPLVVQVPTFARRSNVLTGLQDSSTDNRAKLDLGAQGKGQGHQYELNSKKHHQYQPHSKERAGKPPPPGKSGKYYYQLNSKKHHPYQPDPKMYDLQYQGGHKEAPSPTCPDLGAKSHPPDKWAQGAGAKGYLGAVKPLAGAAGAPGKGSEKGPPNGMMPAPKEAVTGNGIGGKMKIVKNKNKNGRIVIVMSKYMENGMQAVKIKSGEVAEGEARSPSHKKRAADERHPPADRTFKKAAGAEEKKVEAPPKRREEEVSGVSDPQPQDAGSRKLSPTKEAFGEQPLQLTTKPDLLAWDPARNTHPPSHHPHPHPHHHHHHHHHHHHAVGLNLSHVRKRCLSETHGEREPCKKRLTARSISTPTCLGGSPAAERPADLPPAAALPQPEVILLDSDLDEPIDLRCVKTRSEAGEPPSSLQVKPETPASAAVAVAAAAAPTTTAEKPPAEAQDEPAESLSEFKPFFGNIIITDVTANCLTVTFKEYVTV

[11] = species on record: Homo sapiens; assay: Selectivity ratio of Kd for CBX4 (unknown origin) to Kd for CBX8 (unknown origin)
[12] = species on record: Homo sapiens; assay: Selectivity ratio of Kd for CBX7 (unknown origin) to Kd for CBX8 (unknown origin)
[13] = species on record: Homo sapiens; assay: Selectivity ratio of Kd for CBX6 (unknown origin) to Kd for CBX8 (unknown origin)
[14] = species on record: Homo sapiens; assay: Selectivity ratio of Kd for CBX1 (unknown origin) to Kd for CBX8 (unknown origin)
[15] = species on record: Homo sapiens; assay: Selectivity ratio of Kd for CBX2 (unknown origin) to Kd for CBX8 (unknown origin)

Q: Which results are given for CC(C)C[C@H](NC(=O)[C@H](CO)NC(=O)[C@H](CCCC[N+](C)(C)C)NC(=O)[C@H](Cc1ccc(O)cc1)NC(=O)[C@H](C)NC(=O)[C@H](Cc1ccccc1)NC(=O)c1ccc(Br)cc1)C(N)=O ({Benzoyl(4-Br)}-FAY[Lys(Me3)]SL-NH2)?
A: IC50 [1]: 13000 nM; Activity [2]: Non-Toxic; IC50 [3]: 19000 nM; IC50 [4]: 1100 nM

Q: Which Kd [5] does the source give for CC(C)C[C@H](NC(=O)[C@H](CO)NC(=O)[C@H](CCCC[N+](C)(C)C)NC(=O)[C@H](Cc1ccc(O)cc1)NC(=O)[C@H](C)NC(=O)[C@H](Cc1ccccc1)NC(=O)c1ccc(Br)cc1)C(=O)N[C@@H](CCCCNC(=S)Nc1ccc(-c2c3ccc(=O)cc-3oc3cc(O)ccc23)c(C(=O)O)c1)C(N)=O ({Benzoyl(4-Br)}-FAY[Lys(Me3)]SLK(X1)-NH2) here?
A: 78 nM

Q: What about the Kd [6] of the same compound?
A: 890 nM

Q: What about the Kd [7] of the same compound?
A: 1750 nM

Q: What about the Kd [8] of the same compound?
A: 11 nM

Q: What does the source list for CC[C@H](NC(=O)[C@H](Cc1ccccc1)NC(=O)c1ccc(Br)cc1)C(=O)N[C@@H](Cc1ccccc1)C(=O)N[C@@H](CCCC[N+](C)(C)C)C(=O)N[C@@H](CO)C(=O)N[C@@H](CCC(=O)O)C(=O)N[C@@H](CCCCNC(=S)Nc1ccc(-c2c3ccc(=O)cc-3oc3cc(O)ccc23)c(C(=O)O)c1)C(N)=O ({Benzoyl(4-Br)}-F[Abu]F[Lys(Me3)]SEK(X1)-NH2)?
A: Kd [9]: 1500 nM; Kd [5]: 800 nM; Kd [6]: 960 nM; Kd [10]: 700 nM; Kd [7]: 180000 nM; Kd [8]: 300 nM

Q: With CC[C@H](NC(=O)[C@H](Cc1ccccc1)NC(=O)c1ccc(Br)cc1)C(=O)N[C@H](C(=O)N[C@@H](CCCC[N+](C)(C)C)C(=O)N[C@@H](CO)C(=O)N[C@@H](CCC(=O)O)C(=O)N[C@@H](CCCCNC(=S)Nc1ccc(-c2c3ccc(=O)cc-3oc3cc(O)ccc23)c(C(=O)O)c1)C(N)=O)C1CCCC1 ({Benzoyl(4-Br)}-F[Abu][Gly(cPent)][Lys(Me3)]SEK(X1)-NH2) as the compound, how does the Kd [9] read?
A: 390 nM

Q: And the Kd [5]?
A: 350 nM

Q: What about the Kd [6] of the same compound?
A: 120 nM

Q: What about the Selectivity ratio [11] of the same compound?
A: 5

Q: What about the Selectivity ratio [12] of the same compound?
A: 2

Q: What about the Selectivity ratio [13] of the same compound?
A: 3

Q: What about the Kd [10] of the same compound?
A: 600 nM

Q: What about the Selectivity ratio [14] of the same compound?
A: 26

Q: And the Kd [7]?
A: 3200 nM

Q: And the Kd [8]?
A: 160 nM

Q: What about the Selectivity ratio [15] of the same compound?
A: 3

Q: What does the source list for CC(C)C[C@H](NC(=O)[C@H](C)NC(=O)[C@H](Cc1ccccc1)NC(=O)CCNC(=S)Nc1ccc(-c2c3ccc(=O)cc-3oc3cc(O)ccc23)c(C(=O)O)c1)C(=O)N[C@@H](CCCC[N+](C)(C)C)C(=O)N[C@@H](CO)C(N)=O ({X1-βAla}-FAL[Lys(Me3)]S-NH2)?
A: Kd [9]: 1100 nM; Kd [5]: 900 nM; Kd [6]: 4500 nM; Kd [10]: 800 nM; Kd [7]: 2500 nM; Kd [8]: 700 nM
